Where “and” joins values, the source holds several entries; their conditions need not be identical. Identical values can stand only once. Like-named read-outs stand apart in the source and are kept apart here. Starred links: 1 amine or outer side, 2 acyl side, 3 side chain; linkers in the order of their positions; H or OH if unused. Positions of bridges follow the written chain, without caps; N, C: chain ends. Non-standard residues stand in square brackets, D forms with d. Residues, ends and D or L forms follow the SMILES beside them. *: point of attachment. Orn(4R-OH,5R-OCH2CH2NMe3+) = C[N+](C)(C)CCO[C@@H](N[*:3])[C@H](O)C[C@H](N[*:1])C(=O)[*:2]; pTerphenylCO(4''-OnC5H11) = CCCCCOc1ccc(-c2ccc(-c3ccc(C(=O)*)cc3)cc2)cc1; hTyr(3S-OH,4S-OH) = N[C@H](C(=O)O)[C@H](O)[C@@H](O)c1ccc(O)cc1; Pro(3S-OH,4S-Me) = C[C@H]1CN[C@H](C(=O)O)[C@H]1O; Hyp = O=C(O)[C@@H]1C[C@@H](O)CN1
Key:
[1] = target: 1,3-β-D-glucan synthase from C. albicans (Candida albicans, UniProt O13428, F641S); assay: Glucan synthase (GS) inhibition assay; settings: IC50, DPL18; Fks1 F641S
[2] = target: 1,3-β-D-glucan synthase from C. albicans (Candida albicans, UniProt O13428); assay: Glucan synthase (GS) inhibition assay
[3] = target: 1,3-β-D-glucan synthase from C. albicans (Candida albicans, UniProt O13428, S645P); assay: Glucan synthase (GS) inhibition assay; settings: IC50, DPL20; Fks1 S645P
C. albicans = assay: Antifungal susceptibility testing (CLSI M27-S4), WT and echinocandin-resistant isolates; settings: for MIC median (range): 24 hr
Experimental: Antifungal susceptibility testing. Antifungal susceptibility testing was performed in triplicate for a collection of 95 Candida strains (20 C. albicans, 20 C. glabrata, 2 C. dubliniensis, 15 C. krusei, 19 C. parapsilosis, and 19 C. tropicalis) that included 30 isolates showing an echinocandin resistance (ER) phenotype (caspofungin-resistant) in accordance with the guidelines described in the Clinical and Laboratory Standards Institute (CLSI) document M27-S4. […] Stock solutions of the drugs were kept at −86° C.

Aspergillus fumigatus = assay: Broth microdilution of invasive fungal isolates (CLSI M27-A3/M38-A2), MEC; format: cell-based; settings: 56 isolates
C. parapsilosis CP02 = assay: microbe, parasite or virus in culture; format: cell-based, Candida parapsilosis; settings: Lodderomyces parapsilosis
[4] = system: C. parapsilosis vaginal isolates; assay: Susceptibility testing of VVC clinical isolates at pH 7 and 4 (CLSI M27-A3); format: cell-based, Candida parapsilosis
[5] = Solubility of test articles in vehicle, visual observation (Table 22); format: physicochemical; settings: vehicle 10% DMSO/1% Tween 20 in 0.9% NaCl; formulation 0.3, 1 and 3 mg/mL; visual observation
Experimental: Test Articles. […] Amphotericin B and fluconazole were in powder form. Amphotericin B was dissolved in 0.9% NaCl. Fluconazole was dissolved in water (WFI: water for injection).

[6] = system: C. glabrata ATCC 90030, ATCC 2001; format: cell-based, Candida glabrata; settings: for Freq. (replicate mutation frequency): replicate plates 1-3, listed as CMP1; for Plate concentration: SDA, minimum concentration to cleanly inhibit growth
Experimental: Spontaneous mutant selection. […] Three individual colonies from each strain were used to start cultures in RPMI. […] One milliliter aliquots were spread onto SDA plates containing drug with sterile glass beads. Starting viable count was enumerated by triplicate plating of serial dilutions of the starting inoculum. […] Glycerol stocks of putative mutant colonies were stored at −80° C. […] Spontaneous mutation frequencies were calculated by dividing the number of resistant colonies on a given plate by the starting inoculum plated. A subset of mutants (weighted heavily towards those selected with CMP1) were then evaluated by MIC and sequencing of FKS gene hot spot regions.

C. krusei ATCC 6258 = assay: microbe, parasite or virus in culture; format: cell-based, Candida krusei; settings: Pichia kudriavzevii
[7] = system: C. krusei ATCC 6258, ATCC 14243; assay: Time-kill assay in vagina-simulative medium pH 4.0 (Table 20); format: cell-based, Candida krusei; settings: two C. krusei strains; all concentrations (2-128 μg/mL)
[8] = system: C. albicans vaginal isolates; assay: Susceptibility testing of VVC clinical isolates at pH 7 and 4 (CLSI M27-A3); format: cell-based, Candida albicans; settings: 60 VVC isolates

Sequence of 1,3-β-D-glucan synthase from C. albicans (Candida albicans, UniProt O13428, S645P) (O13428 entry or part of it S645P): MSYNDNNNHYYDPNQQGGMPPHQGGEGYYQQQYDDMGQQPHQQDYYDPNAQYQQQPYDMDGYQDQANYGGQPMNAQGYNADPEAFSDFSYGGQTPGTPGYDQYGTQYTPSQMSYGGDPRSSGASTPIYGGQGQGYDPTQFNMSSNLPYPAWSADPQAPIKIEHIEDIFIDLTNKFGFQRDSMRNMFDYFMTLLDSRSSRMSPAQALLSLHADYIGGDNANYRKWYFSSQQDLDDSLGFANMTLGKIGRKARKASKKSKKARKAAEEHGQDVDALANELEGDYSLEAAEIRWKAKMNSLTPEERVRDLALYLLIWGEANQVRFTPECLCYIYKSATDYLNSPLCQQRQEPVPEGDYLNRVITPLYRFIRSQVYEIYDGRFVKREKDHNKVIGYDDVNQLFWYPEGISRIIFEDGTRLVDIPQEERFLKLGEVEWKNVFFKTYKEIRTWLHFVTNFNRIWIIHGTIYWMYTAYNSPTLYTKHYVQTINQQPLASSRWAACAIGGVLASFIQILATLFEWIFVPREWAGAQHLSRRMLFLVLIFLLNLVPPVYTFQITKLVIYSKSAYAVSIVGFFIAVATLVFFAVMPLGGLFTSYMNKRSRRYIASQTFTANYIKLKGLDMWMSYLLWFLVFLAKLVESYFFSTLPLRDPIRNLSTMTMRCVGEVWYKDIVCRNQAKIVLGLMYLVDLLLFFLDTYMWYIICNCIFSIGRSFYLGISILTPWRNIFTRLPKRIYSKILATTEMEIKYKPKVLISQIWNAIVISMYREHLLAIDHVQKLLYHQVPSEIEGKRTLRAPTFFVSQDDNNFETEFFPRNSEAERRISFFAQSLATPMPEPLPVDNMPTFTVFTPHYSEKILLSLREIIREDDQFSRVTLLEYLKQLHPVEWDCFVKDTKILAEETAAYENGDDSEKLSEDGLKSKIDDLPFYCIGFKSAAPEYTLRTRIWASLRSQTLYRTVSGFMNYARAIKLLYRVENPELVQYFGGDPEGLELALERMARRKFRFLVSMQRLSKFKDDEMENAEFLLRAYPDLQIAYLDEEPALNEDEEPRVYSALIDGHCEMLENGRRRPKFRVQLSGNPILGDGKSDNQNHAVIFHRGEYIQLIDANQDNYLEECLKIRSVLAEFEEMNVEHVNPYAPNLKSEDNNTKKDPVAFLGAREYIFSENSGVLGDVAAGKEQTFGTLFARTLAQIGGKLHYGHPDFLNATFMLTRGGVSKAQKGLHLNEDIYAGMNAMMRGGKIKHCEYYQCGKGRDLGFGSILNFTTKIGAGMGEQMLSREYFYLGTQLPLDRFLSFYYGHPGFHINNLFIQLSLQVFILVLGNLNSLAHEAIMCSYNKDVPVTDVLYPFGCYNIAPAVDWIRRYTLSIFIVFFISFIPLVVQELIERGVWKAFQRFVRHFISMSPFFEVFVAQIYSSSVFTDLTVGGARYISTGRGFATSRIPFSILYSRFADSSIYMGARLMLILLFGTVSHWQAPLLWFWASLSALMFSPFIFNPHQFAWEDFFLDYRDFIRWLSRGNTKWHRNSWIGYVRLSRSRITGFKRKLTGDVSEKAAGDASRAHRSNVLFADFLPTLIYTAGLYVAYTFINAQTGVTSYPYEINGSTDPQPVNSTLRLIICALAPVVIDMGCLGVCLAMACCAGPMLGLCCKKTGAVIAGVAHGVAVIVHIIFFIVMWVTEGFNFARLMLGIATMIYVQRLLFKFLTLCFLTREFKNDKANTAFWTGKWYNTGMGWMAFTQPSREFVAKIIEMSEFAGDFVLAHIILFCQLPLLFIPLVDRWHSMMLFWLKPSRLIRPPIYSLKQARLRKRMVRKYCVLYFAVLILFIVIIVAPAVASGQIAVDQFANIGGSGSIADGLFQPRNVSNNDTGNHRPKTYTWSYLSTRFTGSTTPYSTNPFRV
Sequence of 1,3-β-D-glucan synthase from C. albicans (Candida albicans, UniProt O13428, F641S) (O13428 entry or part of it F641S): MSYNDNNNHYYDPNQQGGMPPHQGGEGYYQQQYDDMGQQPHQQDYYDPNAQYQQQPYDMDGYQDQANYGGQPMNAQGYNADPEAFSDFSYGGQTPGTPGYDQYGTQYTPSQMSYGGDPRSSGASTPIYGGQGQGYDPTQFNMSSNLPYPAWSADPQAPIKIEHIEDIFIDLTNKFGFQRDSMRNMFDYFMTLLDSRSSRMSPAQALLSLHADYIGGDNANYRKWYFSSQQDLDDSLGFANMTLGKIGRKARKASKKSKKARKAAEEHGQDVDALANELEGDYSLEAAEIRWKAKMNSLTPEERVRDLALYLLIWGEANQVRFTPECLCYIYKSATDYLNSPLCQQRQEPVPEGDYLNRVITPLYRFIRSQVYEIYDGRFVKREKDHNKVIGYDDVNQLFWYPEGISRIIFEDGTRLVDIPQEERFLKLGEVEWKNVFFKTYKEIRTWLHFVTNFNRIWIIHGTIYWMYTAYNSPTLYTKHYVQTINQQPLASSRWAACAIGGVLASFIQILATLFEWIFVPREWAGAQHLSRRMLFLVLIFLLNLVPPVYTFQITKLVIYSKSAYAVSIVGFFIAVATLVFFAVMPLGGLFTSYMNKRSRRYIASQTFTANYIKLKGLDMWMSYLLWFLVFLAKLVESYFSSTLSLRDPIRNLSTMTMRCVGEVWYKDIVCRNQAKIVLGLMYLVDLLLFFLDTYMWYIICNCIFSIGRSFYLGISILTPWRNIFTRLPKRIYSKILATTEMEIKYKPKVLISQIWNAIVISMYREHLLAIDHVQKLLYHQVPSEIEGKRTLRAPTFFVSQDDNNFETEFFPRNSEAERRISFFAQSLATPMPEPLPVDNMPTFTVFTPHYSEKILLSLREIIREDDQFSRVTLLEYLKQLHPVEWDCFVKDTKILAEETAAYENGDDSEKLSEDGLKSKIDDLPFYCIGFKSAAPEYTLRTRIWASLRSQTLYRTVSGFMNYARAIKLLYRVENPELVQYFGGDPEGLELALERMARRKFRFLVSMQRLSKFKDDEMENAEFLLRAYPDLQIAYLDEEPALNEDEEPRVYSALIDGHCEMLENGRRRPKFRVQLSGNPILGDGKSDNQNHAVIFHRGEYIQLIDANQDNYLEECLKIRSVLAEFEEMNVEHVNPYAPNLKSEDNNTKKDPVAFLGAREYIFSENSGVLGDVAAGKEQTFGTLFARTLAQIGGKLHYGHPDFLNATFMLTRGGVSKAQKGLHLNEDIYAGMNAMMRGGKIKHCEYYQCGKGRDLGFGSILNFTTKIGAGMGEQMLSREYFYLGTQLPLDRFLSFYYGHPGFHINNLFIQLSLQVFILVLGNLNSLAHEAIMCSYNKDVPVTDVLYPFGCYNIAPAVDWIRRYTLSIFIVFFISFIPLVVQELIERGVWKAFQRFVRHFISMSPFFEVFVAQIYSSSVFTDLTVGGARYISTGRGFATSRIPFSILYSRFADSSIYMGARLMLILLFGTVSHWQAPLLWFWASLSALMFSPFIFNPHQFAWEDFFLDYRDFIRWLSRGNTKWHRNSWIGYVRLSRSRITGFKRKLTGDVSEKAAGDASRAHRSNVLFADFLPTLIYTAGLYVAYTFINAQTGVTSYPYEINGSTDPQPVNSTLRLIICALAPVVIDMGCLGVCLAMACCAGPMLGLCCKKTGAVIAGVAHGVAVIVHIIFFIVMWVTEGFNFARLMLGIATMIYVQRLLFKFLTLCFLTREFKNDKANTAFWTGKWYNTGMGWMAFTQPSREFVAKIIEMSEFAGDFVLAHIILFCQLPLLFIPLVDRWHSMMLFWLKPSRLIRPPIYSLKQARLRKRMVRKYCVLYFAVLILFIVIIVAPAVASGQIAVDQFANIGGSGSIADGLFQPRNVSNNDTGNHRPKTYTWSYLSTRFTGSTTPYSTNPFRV

CCCCCOc1ccc(-c2ccc(-c3ccc(C(=O)N[C@H]4C[C@@H](O)[C@@H](OCC[N+](C)(C)C)NC(=O)[C@@H]5[C@@H](O)[C@@H](C)CN5C(=O)[C@H]([C@@H](C)O)NC(=O)[C@H]([C@H](O)[C@@H](O)c5ccc(O)cc5)NC(=O)[C@@H]5C[C@@H](O)CN5C(=O)[C@H]([C@@H](C)O)NC4=O)cc3)cc2)cc1 [Compound 1] ({pTerphenylCO(4''-OnC5H11)}-[Orn(4R-OH,5R-OCH2CH2NMe3+)]T[Hyp][hTyr(3S-OH,4S-OH)]T[Pro(3S-OH,4S-Me)]; lactam 1-C)
IC50 [1]: 283 nM
IC50 ([2]; IC50, DPL1002, WT): 11.6 nM
IC50 ([2]; IC50, glucan synthase, ATCC 90028, WT): 11.4 nM
IC50 ([2]; glucan synthase, DPL22, Fks1p S645P/S): 24.5 nM
IC50 [3]: 2150 nM
% of ER isolates with an MIC of ≤0.5 mg/L (C. albicans; C. albicans ER isolates): 60%
MIC median (range) (C. albicans; ER (10 isolates)): 0.50 (0.06-2) mg/L
MIC median (range) (C. albicans; WT (10 isolates)): <0.03 (<0.03)^ mg/L
Cumulative % of isolates inhibited at MEC 0.015 μg/mL (Aspergillus fumigatus): (92.9) %
Cumulative % of isolates inhibited at MEC 0.03 μg/mL (Aspergillus fumigatus): (100.0) %
Cumulative % of isolates inhibited at MEC ≤0.008 μg/mL (Aspergillus fumigatus): (41.1) %
Number of isolates inhibited at MEC 0.015 μg/mL (Aspergillus fumigatus): 29
Number of isolates inhibited at MEC 0.03 μg/mL (Aspergillus fumigatus): 4
Number of isolates inhibited at MEC ≤0.008 μg/mL (Aspergillus fumigatus): 23
MIC (C. parapsilosis CP02; CP02, CP02 P20-1, selecting drug ANID): 4 µg/mL
MIC (C. parapsilosis CP02; CP02, CP02 P20-1, selecting drug CMP1): 4 µg/mL
MIC (C. parapsilosis CP02; CP02, read-out: MIC P20, CP02, total population after 20 passages with the selecting drug, MIC of selecting drug): 4 µg/mL
MIC90 ([4]; 24 h, pH 4): 2 µg/mL
MIC90 ([4]; 24 h, pH 7): 2 µg/mL
MIC90 ([4]; 48 h, pH 4): 2 µg/mL
MIC90 ([4]; 48 h, pH 7): 4 µg/mL
Solubility [5]: S
Median mutation frequency ([6]; ATCC 2001): 3.16E−08
Freq. (replicate mutation frequency) ([6]; ATCC 2001): 3.16E−08 and 3.79E−08 and 1.17E−08
Median mutation frequency ([6]; ATCC 90030): 1.35E−08
Freq. (replicate mutation frequency) ([6]; ATCC 90030): 3.52E−08 and 1.26E−08 and 1.35E−08
Plate concentration ([6]; ATCC 2001): 0.25 µg/mL
Plate concentration ([6]; ATCC 90030): 0.25 µg/mL
MIC (C. krusei ATCC 6258; ATCC6258): 0.125 µg/mL
MIC (C. krusei ATCC 6258; ATCC6258, read-out: MIC P20): 0.125 µg/mL
time at which cidality (≥3-log reduction in CFU) was achieved [7]: < 24 h
Number of isolates at MIC 0.06 μg/mL ([8]; 24 h, pH 4): 1
Number of isolates at MIC 0.125 μg/mL ([8]; 24 h, pH 4): 33
Number of isolates at MIC 0.25 μg/mL ([8]; 24 h, pH 4): 23
Number of isolates at MIC 0.5 μg/mL ([8]; 24 h, pH 4): 3
Number of isolates at MIC 0.03 μg/mL ([8]; 24 h, pH 7): 43
Number of isolates at MIC 0.06 μg/mL ([8]; 24 h, pH 7): 10
Number of isolates at MIC 0.125 μg/mL ([8]; 24 h, pH 7): 2
Number of isolates at MIC […] ([8]; 24 h, pH 7): 5
Number of isolates at MIC 0.125 μg/mL ([8]; 48 h, pH 4): 6
Number of isolates at MIC 0.25 μg/mL ([8]; 48 h, pH 4): 16
Number of isolates at MIC 0.5 μg/mL ([8]; 48 h, pH 4): 34
Number of isolates at MIC 1 μg/mL ([8]; 48 h, pH 4): 4

Reference: patent US20180256673A1, “METHODS FOR TREATING FUNGAL INFECTIONS” (priority 2015, published 2018)
